Experimental data reported in US10385031B2, “Substituted piperazines as selective HDAC1,2 inhibitors” (Regenacy Pharmaceuticals, LLC, priority 2016, dated 2019).

Legend:
[1] = tested on: CYP1A2, CYP2C9, CYP2C19, CYP3A4, CYP2D6; assay: Cyp inhibition in human liver microsomes (all isozymes); assay type: in vitro ADME
Description: (§1) For Cyp inhibition, human liver microsomes from BD Gentest were incubated with Compound 028 or Compound 032 (10, 3.33, 1.11, 0.37, 0.12, 0.04, 0.01 μM) and substrate (CYP1A2: Phenacetin at 30 μM; CYP2C9: Diclofenac at 10 μM; CYP2C19: S-Mephenytoin at 35 μM; CYP3A4: Midazolam at 5 μM and Testosterone at 80 μM; CYP2D6: Bufuralol at 10 μM) for the following incubation times: CYP1A2, 2C9, 2D6: 10 minutes, 37° C.; CYP2C19: 45 minutes, 37° C.; CYP3A4: 5 minutes, 37° C. Substrate conversion was measured by liquid chromatography/mass spectrometry/mass spectrometry (LC/MS/MS). Inhibition was calculated by curve fitting in Graph Pad Prism.

hERG = hERG (Homo sapiens (Human), UniProt Q12809); assay: hERG inhibition, whole-cell patch clamp; assay type: cell-based; details: HEK293 cells stably transfected with hERG, 34 °C, tail current
Description: For hERG inhibition assays, the cells used were HEK293 cells stably transfected with hERG (cell line obtained from Cytocentrics Inc. 3463 Magic Drive San Antonio, Tex. 78229). Composition of External Solution: NaCl, 137 mM; KCl, 4 mM; MgCl2, 1.0 mM; CaCl2, 1.8 mM; HEPES 10 mM; Dextrose 11 mM; Adjusted to a pH of 7.4 with NaOH. Composition of Internal Solution: KCl, 130.0 mM; MgCl2, 1.0 mM; HEPES, 5.0 mM; EGTA, 5.0 mM; NaCl 7.0 mM. Adjusted to a pH of 7.2 using KOH. Test Concentrations: 0.1, 1, 10, 100 μM. Vehicle: DMSO. Experiments were performed at 34+/−1° C. Current was recorded using the whole-cell patch clamp technique on the Cytopatch automated platform. hERG current was elicited with the following voltage protocol: hERG current amplitude was measured as the peak current at −50 mV (tail current). […] Each cell served as its own control. Data are presented as the IC50 calculated by non-linear regression analysis.

[2] = Rat pharmacokinetics, cassette dosing (IV and PO); assay type: in vivo; details: rat, plasma, male SD rats; for bioavailability: 5 mg/kg, oral AUC to IV AUC, dose adjusted; for IV clearance: IV 1 mg/kg; for AUC / Cmax / half-life: PO 5 mg/kg; for half-life: read-out: PO T½ (converted)
Description: Male SD rats were fasted overnight. Compounds of the invention were dissolved in dimethyl acetamide at 10 times the final concentration, then Solutol HS 15 (BASF) was added to a final concentration of 10%. Finally 80% saline was added and vortexed to achieve a clear solution. For the IV dosing three animals were injected via the foot dorsal vein with 1 mg/kg compound. For the PO dosing 5 mg/kg of compound was delivered by oral gavage. Blood was collected via the tail vein into K2EDTA tubes at 5 minutes, 15 minutes, 30 minutes, 1 hour, 2 hours, 4 hours, 8 hours and 24 hours after dosing. The blood was centrifuged at 2000 g for 5 minutes at 4° C. to obtain plasma. The plasma was extracted with acetonitrile and the level of compound was analyzed by LC/MS/MS. The level of compound in plasma was calculated from a standard curve in rat plasma. The IV clearance (L/h/kg) and area under the curve (h*ng/mL) were calculated using WinNonLin software. The dose adjusted area under the curve for the IV and oral dosing were used to calculate the oral bioavailability.
Pharmacokinetic properties were assessed in a rat cassette dosing experiment. The IV clearance (IV Clr.) is in units of L/hr/kg. The oral maximum plasma concentration (PO Cmax) is in units of ng/ml. The oral plasma half-life (PO T½) is in units of hours. The oral area under the curve (PO AUC) is in units of hours*ng/ml. The fraction absorbed by the oral route (F %) is a percentage of the oral area under the curve to the IV area under the curve, dose adjusted.

CYP3A4 = CYP3A4 (Homo sapiens (Human), UniProt P08684); assay: Cyp inhibition in human liver microsomes (3A4/midazolam); assay type: in vitro ADME
Description: as §1, with “CYP2C9:” for “For Cyp inhibition, human liver microsomes from BD Gentest were incubated with Compound 028 or Compound 032 (10, 3.33, 1.11, 0.37, 0.12, 0.04, 0.01 μM) and substrate (CYP1A2: Phenacetin at 30 μM; CYP2C9:”

hERG, sequence (Q12809 whole entry): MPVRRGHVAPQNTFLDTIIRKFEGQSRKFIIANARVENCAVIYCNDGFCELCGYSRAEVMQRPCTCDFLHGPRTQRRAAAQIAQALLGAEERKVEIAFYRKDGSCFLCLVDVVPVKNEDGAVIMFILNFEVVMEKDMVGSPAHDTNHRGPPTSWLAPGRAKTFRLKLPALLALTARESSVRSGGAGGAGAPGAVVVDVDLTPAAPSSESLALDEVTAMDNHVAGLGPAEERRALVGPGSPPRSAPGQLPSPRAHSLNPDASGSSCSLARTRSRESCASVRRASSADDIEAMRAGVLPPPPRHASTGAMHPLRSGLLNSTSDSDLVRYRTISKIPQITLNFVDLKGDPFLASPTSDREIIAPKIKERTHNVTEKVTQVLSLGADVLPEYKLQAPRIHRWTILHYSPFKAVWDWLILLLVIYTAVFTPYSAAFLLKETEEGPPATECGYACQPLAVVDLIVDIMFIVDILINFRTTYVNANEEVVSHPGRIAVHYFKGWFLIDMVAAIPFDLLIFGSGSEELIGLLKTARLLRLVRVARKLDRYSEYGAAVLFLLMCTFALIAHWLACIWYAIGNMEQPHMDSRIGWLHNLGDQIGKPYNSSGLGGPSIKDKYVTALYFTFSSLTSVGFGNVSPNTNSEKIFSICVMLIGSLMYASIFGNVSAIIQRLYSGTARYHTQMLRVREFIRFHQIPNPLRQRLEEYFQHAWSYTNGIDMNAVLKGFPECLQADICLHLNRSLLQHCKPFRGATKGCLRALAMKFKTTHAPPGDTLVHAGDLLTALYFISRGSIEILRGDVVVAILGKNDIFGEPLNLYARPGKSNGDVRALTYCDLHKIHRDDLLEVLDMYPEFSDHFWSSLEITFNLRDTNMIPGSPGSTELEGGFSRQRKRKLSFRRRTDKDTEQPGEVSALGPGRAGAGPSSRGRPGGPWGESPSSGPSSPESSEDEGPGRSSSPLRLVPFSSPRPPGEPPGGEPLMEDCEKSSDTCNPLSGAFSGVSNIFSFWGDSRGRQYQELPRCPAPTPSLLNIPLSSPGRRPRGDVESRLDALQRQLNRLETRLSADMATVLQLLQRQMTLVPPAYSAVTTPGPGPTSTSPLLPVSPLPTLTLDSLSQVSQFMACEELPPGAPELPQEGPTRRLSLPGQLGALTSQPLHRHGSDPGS
CYP3A4, sequence (P08684 whole entry): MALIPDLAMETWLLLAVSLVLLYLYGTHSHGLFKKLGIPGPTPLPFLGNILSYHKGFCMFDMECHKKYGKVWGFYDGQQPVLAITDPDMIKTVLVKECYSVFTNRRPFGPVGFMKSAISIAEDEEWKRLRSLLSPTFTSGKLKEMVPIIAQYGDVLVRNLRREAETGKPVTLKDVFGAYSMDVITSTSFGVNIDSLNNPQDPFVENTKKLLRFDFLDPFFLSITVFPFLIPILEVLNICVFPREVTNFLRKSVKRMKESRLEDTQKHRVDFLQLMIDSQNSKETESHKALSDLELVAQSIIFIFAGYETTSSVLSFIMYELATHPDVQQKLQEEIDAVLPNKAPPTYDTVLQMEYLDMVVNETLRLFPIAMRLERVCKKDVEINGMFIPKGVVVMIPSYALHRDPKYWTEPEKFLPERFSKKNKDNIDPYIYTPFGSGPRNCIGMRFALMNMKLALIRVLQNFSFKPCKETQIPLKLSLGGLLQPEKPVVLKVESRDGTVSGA

SMILES	IC50 [1] [µM]	bioavailability [2] [%]	IV clearance [2] [mL/min/kg]	AUC [2] [ng·h/mL]	Cmax [2] [ng/mL]	half-life [2] [h]	IC50 (hERG) [µM]	IC50 (CYP3A4) [µM]
CN1CCN(c2ccc(C(=O)Nc3cc(-c4ccncc4)ccc3N)nc2)CC1 [Compound 028]							38	5.9
Nc1ccc(-c2ccco2)cc1NC(=O)c1ccc2nc(N3CCNCC3)ccc2c1 [Compound 003]	> 10	77	3.17	19100	1910	5	7.6	
Nc1ccc(-c2cccs2)cc1NC(=O)c1ccc(N2CCNCC2)nc1 [Compound 007]	> 10						8.6	

More lines, main results first:

IC50 [1] [µM]	bioavailability [2] [%]	IV clearance [2] [mL/min/kg]	AUC [2] [ng·h/mL]	Cmax [2] [ng/mL]	half-life [2] [h]	SMILES	IC50 (hERG) [µM]	IC50 (CYP3A4) [µM]
> 10						Cc1nc(N2CCNCC2)sc1C(=O)Nc1cc(-c2cccs2)ccc1N [Compound 031]	12	
> 10	195	16.3	8180	517	13.5	Nc1ccc(-c2ccccc2)cc1NC(=O)c1cc2ccc(N3CCNCC3)cc2cn1 [Compound 022]	0.4	
> 10	78.6	10.5	6190	839	3	CN1CCN(c2ccc(C(=O)Nc3cc(-c4ccncc4)ccc3N)cn2)CC1 [Compound 027]	> 100	
	9.7	17.7	456	173	4.3	Nc1ccc(-c2ccncc2)cc1NC(=O)c1cnc(N2CCNCC2)s1 [Compound 032]	12	9.5
